Where “and” joins values, the source holds several entries; their conditions need not be identical. Equal entries are not always repeated. Inconclusive results and toxic doses are left out.
System: P388 leukemia ip, CD2F1 mice, survival T/C
Test: NCI In Vivo Anticancer Drug Screen. Data for tumor model P388 Leukemia (intraperitoneal) in CD2F1 (CDF1) mice
Settings: endpoint: median survival time, higher = longer survival
How it was run: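 Mice carrying the transplanted tumor received test compound or vehicle. Survival was recorded in each group, and the value is the treated-group measurement divided by that of the vehicle-treated control group.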

[1] = dose: 50.0 mg/kg/injection, schedule: Q01DX009 (ip), vehicle: saline with Tween-80
[2] = dose: 100.0 mg/kg/injection, schedule: Q01DX009 (ip), vehicle: saline with Tween-80
[3] = dose: 50.0 mg/kg/injection, schedule: Q01DX005 (ip), vehicle: saline with Tween-80
[4] = dose: 100.0 mg/kg/injection, schedule: Q01DX005 (ip), vehicle: saline with Tween-80
[5] = dose: 200.0 mg/kg/injection, schedule: Q01DX005 (ip), vehicle: saline with Tween-80
[6] = dose: 6.25 mg/kg/injection, schedule: Q01DX009 (ip), vehicle: saline with Tween-80
[7] = dose: 12.5 mg/kg/injection, schedule: Q01DX009 (ip), vehicle: saline with Tween-80
[8] = dose: 25.0 mg/kg/injection, schedule: Q01DX009 (ip), vehicle: saline with Tween-80
[9] = dose: 50.0 mg/kg/injection, schedule: Q01DX009 (ip), vehicle: saline
[10] = dose: 25.0 mg/kg/injection, schedule: Q01DX005 (ip), vehicle: Klucel (hydroxypropylcellulose) (HPC)
[11] = dose: 50.0 mg/kg/injection, schedule: Q01DX005 (ip), vehicle: Klucel (hydroxypropylcellulose) (HPC)
[12] = dose: 100.0 mg/kg/injection, schedule: Q01DX005 (ip), vehicle: Klucel (hydroxypropylcellulose) (HPC)
[13] = dose: 15.0 mg/kg/injection, schedule: Q01DX005 (ip), vehicle: saline with Tween-80
[14] = dose: 30.0 mg/kg/injection, schedule: Q01DX005 (ip), vehicle: saline with Tween-80

CCOC(=O)/N=[N+](\[O-])c1cccc([N+](=O)[O-])c1
T/C (dose: 100.0 mg/kg/injection, schedule: Q01DX001 (ip), vehicle: saline with Tween-80): 103 % of control
T/C (dose: 200.0 mg/kg/injection, schedule: Q01DX001 (ip), vehicle: saline with Tween-80): 93 % of control

COc1c2c(c3c(c1OC)CCN(CC(c1ccccc1)c1ccccc1)C3)CCC2
T/C (dose: 100.0 mg/kg/injection, schedule: Q04DX002 (ip), vehicle: saline): 101 % of control
T/C (dose: 200.0 mg/kg/injection, schedule: Q04DX002 (ip), vehicle: saline): 100 % of control
T/C (dose: 400.0 mg/kg/injection, schedule: Q04DX002 (ip), vehicle: saline): 103 % of control

O=[N+]([O-])C1C=Nc2ccccc2N=C1
T/C (dose: 50.0 mg/kg/injection, schedule: Q01DX009 (ip), vehicle: Klucel (hydroxypropylcellulose) (HPC)): 105 % of control
T/C (dose: 100.0 mg/kg/injection, schedule: Q01DX009 (ip), vehicle: Klucel (hydroxypropylcellulose) (HPC)): 97 % of control
T/C (dose: 200.0 mg/kg/injection, schedule: Q01DX009 (ip), vehicle: Klucel (hydroxypropylcellulose) (HPC)): 97 % of control
T/C (dose: 400.0 mg/kg/injection, schedule: Q01DX009 (ip), vehicle: Klucel (hydroxypropylcellulose) (HPC)): 96 % of control

O=S(=O)(NC(Cc1nc2ccccc2[nH]1)c1nc2ccccc2[nH]1)c1ccccc1 (stereo not drawn)
T/C [1]: 95 % of control
T/C [2]: 89 % of control
T/C (dose: 200.0 mg/kg/injection, schedule: Q01DX009 (ip), vehicle: saline with Tween-80): 93 % of control

COc1ccn(CC2(C)CO2)c(=O)n1 (stereo not drawn)
T/C (dose: 60.0 mg/kg/injection, schedule: Q01DX005 (ip), vehicle: saline): 103 % of control
T/C (dose: 120.0 mg/kg/injection, schedule: Q01DX005 (ip), vehicle: saline): 106 % of control
T/C (dose: 240.0 mg/kg/injection, schedule: Q01DX005 (ip), vehicle: saline): 104 % of control

O=C(O)C1CCCN1C(=O)c1cccc(Cl)c1 (stereo not drawn)
T/C [3]: 94 % of control
T/C [4]: 96 % of control
T/C [5]: 87 % of control

Cc1cc(=O)c2c(C)cccc2[nH]1
T/C (dose: 2.75 mg/kg/injection, schedule: Q01DX009 (ip), vehicle: saline with Tween-80): 100 % of control
T/C (dose: 4.13 mg/kg/injection, schedule: Q01DX009 (ip), vehicle: saline with Tween-80): 118 % of control
T/C [6]: 100 % of control
T/C (dose: 9.38 mg/kg/injection, schedule: Q01DX009 (ip), vehicle: saline with Tween-80): 100 % of control

CC1(C)N=C(N)N=C(N)N1c1ccc(CCC(=O)Nc2ccc(S(=O)(=O)F)cc2)c(Cl)c1
T/C (dose: 6.25 mg/kg/injection, schedule: Q01DX009 (ip), vehicle: saline): 157 % of control
T/C [7]: 187 % of control
T/C (dose: 12.5 mg/kg/injection, schedule: Q01DX009 (ip), vehicle: saline): 200 % of control
T/C [8]: 170 % of control
T/C (dose: 25.0 mg/kg/injection, schedule: Q01DX009 (ip), vehicle: saline): 209 % of control
T/C [1]: 91 % of control
T/C [9]: 190 % of control
T/C (dose: 100.0 mg/kg/injection, schedule: Q04DX003 (ip), vehicle: saline with Tween-80): 170 % of control
T/C (dose: 132.0 mg/kg/injection, schedule: Q04DX003 (ip), vehicle: saline with Tween-80): 100 % of control
T/C (dose: 200.0 mg/kg/injection, schedule: Q04DX003 (ip), vehicle: saline with Tween-80): 162 % of control and 190 % of control
T/C (dose: 400.0 mg/kg/injection, schedule: Q04DX003 (ip), vehicle: saline with Tween-80): 95 % of control

COc1ccc(S(=O)(=O)N/N=C/c2cc([N+](=O)[O-])ccc2O)cc1
T/C [3]: 101 % of control
T/C [4]: 107 % of control
T/C [5]: 119 % of control

CC(O)CC1C=CCC(CC(O)c2ccccc2)N1C (stereo not drawn)
T/C (dose: 12.5 mg/kg/injection, schedule: Q01DX005 (ip), vehicle: Klucel (hydroxypropylcellulose) (HPC)): 102 % of control
T/C [10]: 100 % of control
T/C [11]: 105 % of control

CCOC(=O)/C(=C(/C)N=Cc1ccccc1[N+](=O)[O-])C(NN=O)c1ccccc1[N+](=O)[O-] (stereo not drawn)
T/C [10]: 97 % of control
T/C [11]: 93 % of control
T/C [12]: 88 % of control and 90 % of control

CCN(CC)CCSC(=O)N1c2ccccc2Sc2ccc(Cl)cc21
T/C (dose: 3.12 mg/kg/injection, schedule: Q01DX009 (ip), vehicle: saline with Tween-80): 96 % of control
T/C [6]: 104 % of control and 105 % of control
T/C [7]: 96 % of control
T/C [8]: 93 % of control
T/C [1]: 100 % of control

O=C(NCCO)Nc1ccccc1F
T/C (dose: 100.0 mg/kg/injection, schedule: Q04DX003 (ip), vehicle: saline): 100 % of control
T/C (dose: 200.0 mg/kg/injection, schedule: Q04DX003 (ip), vehicle: saline): 95 % of control
T/C (dose: 400.0 mg/kg/injection, schedule: Q04DX003 (ip), vehicle: saline): 104 % of control

Cn1c(=O)c2[nH]c(Cl)nc2n(CCCl)c1=O
T/C [7]: 100 % of control and 88 % of control
T/C [8]: 89 % of control and 98 % of control
T/C [1]: 102 % of control and 95 % of control
T/C [2]: 104 % of control and 109 % of control

CC(=O)OCC1OC2OC(C)(OC(C)C)OC2C(OC(C)=O)C1OC(C)=O (stereo not drawn)
T/C (dose: 4.0 mg/kg/injection, schedule: Q01DX009 (ip), vehicle: water): 106 % of control
T/C (dose: 8.0 mg/kg/injection, schedule: Q01DX009 (ip), vehicle: water): 102 % of control
T/C (dose: 16.0 mg/kg/injection, schedule: Q01DX009 (ip), vehicle: water): 100 % of control
T/C (dose: 32.0 mg/kg/injection, schedule: Q01DX009 (ip), vehicle: water): 99 % of control
T/C (dose: 50.0 mg/kg/injection, schedule: Q01DX009 (ip), vehicle: other): 108 % of control
T/C (dose: 64.0 mg/kg/injection, schedule: Q01DX009 (ip), vehicle: water): 98 % of control
T/C (dose: 100.0 mg/kg/injection, schedule: Q01DX009 (ip), vehicle: other): 108 % of control
T/C (dose: 200.0 mg/kg/injection, schedule: Q01DX009 (ip), vehicle: other): 102 % of control
T/C (dose: 400.0 mg/kg/injection, schedule: Q01DX009 (ip), vehicle: other): 102 % of control

O=C(Nc1c(Cl)cccc1Cl)Oc1cccc2cccnc12
T/C [13]: 97 % of control
T/C [14]: 107 % of control
T/C (dose: 60.0 mg/kg/injection, schedule: Q01DX005 (ip), vehicle: saline with Tween-80): 100 % of control and 92 % of control

Cc1cccc(Nc2cc(Cl)nc(SCC(=O)O)n2)c1C
T/C [9]: 100 % of control
T/C (dose: 100.0 mg/kg/injection, schedule: Q01DX009 (ip), vehicle: saline): 98 % of control
T/C (dose: 200.0 mg/kg/injection, schedule: Q01DX009 (ip), vehicle: saline): 100 % of control

CC(CCOCCCBr)OC(=O)CCOCCC(=O)OC(C)CCOCCCBr (stereo not drawn)
T/C [11]: 100 % of control
T/C [12]: 98 % of control
T/C (dose: 200.0 mg/kg/injection, schedule: Q01DX005 (ip), vehicle: Klucel (hydroxypropylcellulose) (HPC)): 100 % of control

CN(C)c1nc(N(C)C)nc(N(C)C=O)n1
T/C (dose: 100.0 mg/kg/injection, schedule: Q01DX001 (ip), vehicle: saline): 99 % of control
T/C (dose: 200.0 mg/kg/injection, schedule: Q01DX001 (ip), vehicle: saline): 97 % of control
T/C (dose: 400.0 mg/kg/injection, schedule: Q01DX001 (ip), vehicle: saline): 100 % of control

CC(=O)N(c1nc2ccccc2s1)N1C(=O)c2ccccc2C1=O
T/C (dose: 60.0 mg/kg/injection, schedule: Q01DX005 (ip), vehicle: Klucel (hydroxypropylcellulose) (HPC)): 98 % of control
T/C (dose: 120.0 mg/kg/injection, schedule: Q01DX005 (ip), vehicle: Klucel (hydroxypropylcellulose) (HPC)): 94 % of control
T/C (dose: 240.0 mg/kg/injection, schedule: Q01DX005 (ip), vehicle: Klucel (hydroxypropylcellulose) (HPC)): 90 % of control

O=C1SC(=NC2CCCCC2)N(C2CCCCC2)/C1=C1\C(=O)SC(=NC2CCCCC2)N1C1CCCCC1
T/C [13]: 92 % of control
T/C [14]: 90 % of control

CC1(CC(C)(C)C2CCCCC2)OCCO1
T/C (dose: 6.25 mg/kg/injection, schedule: Q01DX009 (ip), vehicle: water): 104 % of control
T/C (dose: 12.5 mg/kg/injection, schedule: Q01DX009 (ip), vehicle: water): 108 % of control
T/C (dose: 25.0 mg/kg/injection, schedule: Q01DX009 (ip), vehicle: water): 107 % of control
T/C (dose: 50.0 mg/kg/injection, schedule: Q01DX009 (ip), vehicle: water): 109 % of control
T/C (dose: 100.0 mg/kg/injection, schedule: Q01DX009 (ip), vehicle: water): 90 % of control

C=C(C)C(=O)NCC(=O)Nc1ccc(CC(NC(C)=O)C(=O)OC)cc1 (stereo not drawn)
T/C [3]: 102 % of control
T/C [4]: 100 % of control
T/C [5]: 89 % of control
